Laboratory results from ChEMBL document CHEMBL5143606, “Selective Wee1 degradation by PROTAC degraders recruiting VHL and CRBN E3 ubiquitin ligases” (Bioorg Med Chem Lett, 2022).
One block for each compound: values may come before it. Activity calls are given as the source filed them. The rule behind the calls is not given here.

What was measured:
[1] = target: T1, Protein cereblon/Wee1-like protein kinase (Homo sapiens) (UniProt P30291+Q96SW2); experiment: PROTAC activity at CRBN/Wee1 in human HeLa S3 cells assessed as induction of Wee1 degradation by measuring reduction in phosphorylation of CDK1 at Tyr15 residue at 1 uM measured after 24 hrs by Western blot analysis relative to control; type: cell-based; design: scale not given: the % may be the effect or the level left
[2] = target: T1, Protein cereblon/Wee1-like protein kinase (Homo sapiens); experiment: PROTAC activity at CRBN/Wee1 in human HeLa S3 cells assessed as induction of Wee1 degradation at 1 uM measured after 24 hrs by Western blot analysis relative to control; type: cell-based
[3] = target: T2, von Hippel-Lindau disease tumor suppressor/Wee1-like protein kinase (Homo sapiens) (UniProt P30291+P40337); experiment: PROTAC activity at VHL/Wee1 in human HeLa S3 cells assessed as induction of Wee1 degradation by measuring reduction in phosphorylation of CDK1 at Tyr15 residue at 1 uM measured after 24 hrs by Western blot analysis relative to control; type: cell-based; design: scale not given: the % may be the effect or the level left
[4] = target: T2, von Hippel-Lindau disease tumor suppressor/Wee1-like protein kinase (Homo sapiens); experiment: PROTAC activity at VHL/Wee1 in human HeLa S3 cells assessed as induction of Wee1 degradation at 1 uM measured after 24 hrs by Western blot analysis relative to control; type: cell-based
[5] = target: T2, von Hippel-Lindau disease tumor suppressor/Wee1-like protein kinase (Homo sapiens); experiment: PROTAC activity at VHL/Wee1 in human HeLa S3 cells assessed as induction of Wee1 degradation by measuring reduction in phosphorylation of CDK1 at Tyr15 residue at higher concentration measured after 4 hrs by Western blot analysis; type: cell-based
[6] = tested on: LNCaP; experiment: Antiproliferative activity against human LNCaP cells assessed as inhibition of cell growth measured after 72 hrs by MTS assay; type: functional, cell-based
[7] = tested on: BT-549; experiment: Antiproliferative activity against human BT-549 cells assessed as inhibition of cell growth measured after 72 hrs by MTS assay; type: functional, cell-based; details: BT-549, 72 h
[8] = target: T1, Protein cereblon/Wee1-like protein kinase (Homo sapiens); experiment: PROTAC activity at CRBN/Wee1 in human HeLa S3 cells assessed as induction of Wee1 degradation by measuring reduction in phosphorylation of CDK1 at Tyr15 at above 1 uM measured after 24 to 48 hrs by Western blot analysis; type: cell-based; details: time 24-48 hrs
[9] = tested on: MCF7; experiment: Antiproliferative activity against human MCF7 cells assessed as inhibition of cell growth measured after 72 hrs by MTS assay; type: functional, cell-based; details: MCF7, 72 h
[10] = tested on: PC-3; experiment: Antiproliferative activity against human PC-3 cells assessed as inhibition of cell growth measured after 72 hrs by MTS assay; type: functional, cell-based; details: PC-3, 72 h
[11] = target: T1, Protein cereblon/Wee1-like protein kinase (Homo sapiens); experiment: PROTAC activity at CRBN/Wee1 in human HeLa S3 cells assessed as induction of Wee1 degradation at 1 uM measured after 4 hrs by Western blot analysis; type: cell-based
[12] = target: T1, Protein cereblon/Wee1-like protein kinase (Homo sapiens); experiment: PROTAC activity at CRBN/Wee1 in human HeLa S3 cells assessed as induction of Wee1 degradation at 30 to 10000 nM measured after 4 hrs by Western blot analysis; type: cell-based; details: dose 30-10000 nM
[13] = target: T2, von Hippel-Lindau disease tumor suppressor/Wee1-like protein kinase (Homo sapiens); experiment: PROTAC activity at VHL/Wee1 in human HeLa S3 cells assessed as induction of Wee1 degradation by measuring reduction in CDK1 phosphorylation at Tyr15 residue at above 1 uM measured after 24 to 48 hrs by Western blot analysis; type: cell-based; details: time 24-48 hrs
[14] = target: T2, von Hippel-Lindau disease tumor suppressor/Wee1-like protein kinase (Homo sapiens); experiment: PROTAC activity at VHL/Wee1 in human HeLa S3 cells assessed as induction of Wee1 degradation at 1 uM measured after 24 to 48 hrs by Western blot analysis; type: cell-based; details: time 24-48 hrs
[15] = target: T1, Protein cereblon/Wee1-like protein kinase (Homo sapiens); experiment: PROTAC activity at CRBN/Wee1 in human HeLa S3 cells assessed as induction of Wee1 degradation by measuring reduction in phosphorylation of CDK1 at Tyr15 residue at 100 to 10000 nM measured after 4 hrs by Western blot analysis; type: cell-based; details: dose 100-10000 nM
[16] = target: T2, von Hippel-Lindau disease tumor suppressor/Wee1-like protein kinase (Homo sapiens); experiment: PROTAC activity at VHL/Wee1 in human HeLa S3 cells assessed as induction of Wee1 degradation at 1 uM measured after 4 hrs by Western blot analysis; type: cell-based

Activity [3]: 53%
Activity [4]: 68%
Activity [5]: Active
Structure (SMILES): C=CCn1c(=O)c2cnc(Nc3ccc(N4CCN(CCCC(=O)NCCCCCCCC(=O)N[C@H](C(=O)N5C[C@H](O)C[C@H]5C(=O)NCc5ccc(-c6scnc6C)cc5)C(C)(C)C)CC4)cc3)nc2n1-c1cccc(C(C)(C)O)n1

Activity [1]: 38%
Activity [12]: Active
Activity [2]: 21%
Structure (SMILES): C=CCn1c(=O)c2cnc(Nc3ccc(N4CCN(CCCC(=O)NCCNc5cccc6c5C(=O)N(C5CCC(=O)NC5=O)C6=O)CC4)cc3)nc2n1-c1cccc(C(C)(C)O)n1 (configuration not stated)

Activity [3]: 72%
Activity [4]: 94%
Structure (SMILES): C=CCn1c(=O)c2cnc(Nc3ccc(N4CCN(CCCC(=O)NCCOCCOCCOCC(=O)N[C@H](C(=O)N5C[C@H](O)C[C@H]5C(=O)NCc5ccc(-c6scnc6C)cc5)C(C)(C)C)CC4)cc3)nc2n1-c1cccc(C(C)(C)O)n1

Activity [1]: 84%
Activity [2]: 96%
Structure (SMILES): C=CCn1c(=O)c2cnc(Nc3ccc(N4CCN(CCCC(=O)NCCOCCOCCOCC(=O)NCCNc5cccc6c5C(=O)N(C5CCC(=O)NC5=O)C6=O)CC4)cc3)nc2n1-c1cccc(C(C)(C)O)n1 (configuration not stated)

Activity [1]: 66%
Activity [2]: 59%
Structure (SMILES): C=CCn1c(=O)c2cnc(Nc3ccc(N4CCN(CCCC(=O)NCCOCCOCCOCCNc5cccc6c5C(=O)N(C5CCC(=O)NC5=O)C6=O)CC4)cc3)nc2n1-c1cccc(C(C)(C)O)n1 (configuration not stated)

Activity [3]: 64%
Activity [4]: 71%
Activity [5]: Active
Structure (SMILES): C=CCn1c(=O)c2cnc(Nc3ccc(N4CCN(CCCC(=O)NCCCCCC(=O)N[C@H](C(=O)N5C[C@H](O)C[C@H]5C(=O)NCc5ccc(-c6scnc6C)cc5)C(C)(C)C)CC4)cc3)nc2n1-c1cccc(C(C)(C)O)n1

Activity [15]: Active
Activity [1]: 41%
Activity [12]: Active
Activity [2]: 38%
Structure (SMILES): C=CCn1c(=O)c2cnc(Nc3ccc(N4CCN(CCCC(=O)NCCOCCNc5cccc6c5C(=O)N(C5CCC(=O)NC5=O)C6=O)CC4)cc3)nc2n1-c1cccc(C(C)(C)O)n1 (configuration not stated)

The next lines start with the compound.

Structure (SMILES): C=CCn1c(=O)c2cnc(Nc3ccc(N4CCN(CCCC(=O)NCCOCCOCCOCCOCCNc5cccc6c5C(=O)N(C5CCC(=O)NC5=O)C6=O)CC4)cc3)nc2n1-c1cccc(C(C)(C)O)n1 (configuration not stated)
Activity [1]: 65%
Activity [2]: 45%

Structure (SMILES): C=CCn1c(=O)c2cnc(Nc3ccc(N4CCN(CCCC(=O)NCCCC(=O)N[C@H](C(=O)N5C[C@H](O)C[C@H]5C(=O)NCc5ccc(-c6scnc6C)cc5)C(C)(C)C)CC4)cc3)nc2n1-c1cccc(C(C)(C)O)n1
Activity [3]: 55%
Activity [4]: 68%
Activity [5]: Active

Structure (SMILES): C=CCn1c(=O)c2cnc(Nc3ccc(N4CCN(CCCC(=O)NCCOCCOCCNc5cccc6c5C(=O)N(C5CCC(=O)N(C)C5=O)C6=O)CC4)cc3)nc2n1-c1cccc(C(C)(C)O)n1 (configuration not stated)
IC50 [6]: 11 µM
IC50 [7]: 9 µM
Activity [8]: Active
IC50 [9]: 11 µM
IC50 [10]: > 20 µM

Structure (SMILES): C=CCn1c(=O)c2cnc(Nc3ccc(N4CCN(CCCC(=O)NCCOCCOCC(=O)NCCNc5cccc6c5C(=O)N(C5CCC(=O)NC5=O)C6=O)CC4)cc3)nc2n1-c1cccc(C(C)(C)O)n1 (configuration not stated)
Activity [1]: 80%
Activity [11]: Active
Activity [2]: 81%

Structure (SMILES): C=CCn1c(=O)c2cnc(Nc3ccc(N4CCN(CCCC(=O)NCCCCCCCCCCC(=O)NCCNc5cccc6c5C(=O)N(C5CCC(=O)NC5=O)C6=O)CC4)cc3)nc2n1-c1cccc(C(C)(C)O)n1 (configuration not stated)
Activity [1]: 41%
Activity [2]: 41%

Structure (SMILES): C=CCn1c(=O)c2cnc(Nc3ccc(N4CCN(C)CC4)cc3)nc2n1-c1cccc(C(C)(C)O)n1 [ADAVOSERTIB]
IC50 [6]: 0.5 µM
IC50 [7]: 0.49 µM
IC50 [9]: 1.1 µM
IC50 [10]: 8 µM

Structure (SMILES): C=CCn1c(=O)c2cnc(Nc3ccc(N4CCN(CCCC(=O)NCCCCCCCCCCC(=O)N[C@H](C(=O)N5C[C@H](O)C[C@H]5C(=O)NCc5ccc(-c6scnc6C)cc5)C(C)(C)C)CC4)cc3)nc2n1-c1cccc(C(C)(C)O)n1
Activity [3]: 47%
Activity [4]: 50%
Activity [5]: Active

Structure (SMILES): C=CCn1c(=O)c2cnc(Nc3ccc(N4CCN(CCCC(=O)NCCOCCOCCOCCOCCOCCNc5cccc6c5C(=O)N(C5CCC(=O)NC5=O)C6=O)CC4)cc3)nc2n1-c1cccc(C(C)(C)O)n1 (configuration not stated)
Activity [1]: 78%
Activity [2]: 51%

Structure (SMILES): C=CCn1c(=O)c2cnc(Nc3ccc(N4CCN(CCCC(=O)NCCCC(=O)NCCNc5cccc6c5C(=O)N(C5CCC(=O)NC5=O)C6=O)CC4)cc3)nc2n1-c1cccc(C(C)(C)O)n1 (configuration not stated)
Activity [1]: 60%
Activity [2]: 47%

Structure (SMILES): C=CCn1c(=O)c2cnc(Nc3ccc(N4CCN(CCCC(=O)NCCCCCCCC(=O)NCCNc5cccc6c5C(=O)N(C5CCC(=O)NC5=O)C6=O)CC4)cc3)nc2n1-c1cccc(C(C)(C)O)n1 (configuration not stated)
Activity [1]: 88%
Activity [2]: 83%

Structure (SMILES): C=CCn1c(=O)c2cnc(Nc3ccc(N4CCN(CCCC(=O)NCCCCCC(=O)NCCNc5cccc6c5C(=O)N(C5CCC(=O)NC5=O)C6=O)CC4)cc3)nc2n1-c1cccc(C(C)(C)O)n1 (configuration not stated)
Activity [1]: 54%
Activity [2]: 75%

Structure (SMILES): C=CCn1c(=O)c2cnc(Nc3ccc(N4CCN(CCCC(=O)N[C@H](C(=O)N5C[C@@H](O)C[C@H]5C(=O)NCc5ccc(-c6scnc6C)cc5)C(C)(C)C)CC4)cc3)nc2n1-c1cccc(C(C)(C)O)n1
Activity [13]: Active
IC50 [6]: 3.46 µM
IC50 [7]: 1.7 µM
Activity [14]: Active
IC50 [9]: 3.3 µM
IC50 [10]: 8.7 µM

Structure (SMILES): C=CCn1c(=O)c2cnc(Nc3ccc(N4CCN(CCCC(=O)NCCCCCCNc5cccc6c5C(=O)N(C5CCC(=O)NC5=O)C6=O)CC4)cc3)nc2n1-c1cccc(C(C)(C)O)n1 (configuration not stated)
Activity [15]: Active
Activity [1]: 39%
Activity [12]: Active
Activity [2]: 23%

Structure (SMILES): C=CCn1c(=O)c2cnc(Nc3ccc(N4CCN(CCCC(=O)NCCOCCOCCOCCOCCC(=O)N[C@H](C(=O)N5C[C@H](O)C[C@H]5C(=O)NCc5ccc(-c6scnc6C)cc5)C(C)(C)C)CC4)cc3)nc2n1-c1cccc(C(C)(C)O)n1
Activity [3]: 80%
Activity [4]: 108%
Activity [16]: Active
